Measured values from patent US9895390B2, “Methods and assays for combination treatment of cancer” (CHILDREN'S MEDICAL CENTER CORPORATION, priority 2012, dated 2018).
Where two headings read alike, the source gives them in different places.

Key:
human NSCLC lines = assay: Cytotox assays: chemotherapy dose response curves with or without EZH2 inhibitor, 4 days; format: cell-based; details: for IC50: various NSCLC cell lines, 4 days, read-out: etoposide IC50
Experimental: Cell lines were dissociated, counted and plated at 5000 cells per well in flat bottom opaque tissue culture treated 96 well plates (CytoOne). Edge wells were filled with PBS. The following day, 2× drug diluted in media was added to each well such that the well then contained 100 ul media with 1× drug concentration. After 4 days, Cell Titer Glo™ (Promega) was added and luminescence was read on a BioTec plate reader to determine relative cell number in each well. Data were averaged for triplicate or quadruplicate technical replicates, normalized to the untreated wells and input into GraphPad Prism software to extrapolate IC50.
Cell lines were dissociated, counted and plated at 5000 cells per well in flat bottom opaque tissue culture treated 96 well plates (CytoOne). Edge wells were filled with PBS. The following day, 2× drug diluted in media was added to each well such that the well then contained 100 ul media with 1× drug concentration at the following doses: etoposide; 0, 0.1, 1, 3, 5, 7, 10, 50, 100, 500 μM, cisplatin; 0, 0.1, 1, 5, 10, 30, 70, 100, 500 μM, or doxorubicin; 0, 0.01, 0.1, 0.5, 1, 3, 5, 7, 10, 50 μM. […] Data were averaged for triplicate or quadruplicate technical replicates and normalized to the untreated wells. Results from three or four independent biological replicate experiments were input into […] PRISM™ software to extrapolate IC50 and s.e.m. of IC50 for a given cell line.

[1] = system: BRG1 mutant and BRG1 wild-type cell lines; assay: Gefitinib dose response curves, 4 days; format: cell-based, human; details: data not shown
EZH2 and H3K27me3 = assay: Western Blot for EZH2 and H3K27me3 on whole cell extracts; format: cell-based, human; details: 10 μM GSK126, 7 days in culture
Experimental: For Western blotting, 25 μg of protein extract per sample was denatured with heat and reducing agents, separated on a 4-12% acrylimide gel and transferred to nitrocellulose. Antibodies used for Western blotting were: EZH2 (Cell Signalling), β-actin (AbCAM) and H3K27me3 (Upstate).
Whole cell extracts were made in RIPA buffer (0.5% Deoxycholate, 1% IGEPAL-CA630, 0.1% sodium dodecyl sulfate, 150 mM NaCL, 50 mM Tris-8.1), lysates were cleared by centrifugation, and protein concentrations were quantified with the Pierce BCA Protein Assay Kit (Thermo). For Western blotting, 25 μg of protein extract per sample was denatured with heat and reducing agents, separated on a 4-12% acrylimide gel (BioRad) and transferred to nitrocellulose (GE Healthcare). Antibodies used for Western blotting were: EZH2 (clone D2C9; Cell Signaling; 1:200), Histone H3 (polyclonal; AbCAM ab1791; 1:2000) and H3K27me3 (polyclonal; Millipore 07-449; 1:1000) all incubated overnight at 4° C. Secondary antibody, anti-rabbit-HRP (Santa Cruz sc-2313; 1:5,000), was incubated for 1 hour at room temperature. After washing, chemi-luminescence was visualized with Western Lightning Plus-ECL (PerkinElmer) and exposure onto KODAK BioMax XAR™ film.

COc1cc([C@@H]2c3cc4c(cc3[C@@H](O[C@@H]3O[C@@H]5CO[C@@H](C)O[C@H]5[C@H](O)[C@H]3O)[C@H]3COC(=O)[C@H]23)OCO4)cc(OC)c1O [etoposide] gave an IC50 (human NSCLC lines; Homo sapiens, 96 h, approximate) of ~10 µM and an IC50 (human NSCLC lines; approximate) of ~5 µM.
For N.N.[Cl][Pt][Cl] [cisplatin], the “cisplatin IC30” value (human NSCLC lines; NSCLC cell lines, approximate) was ~5 µM.
In the case of COc1cc2ncnc(Nc3ccc(F)c(Cl)c3)c2cc1OCCCN1CCOCC1 [gefitinib], the “gefitinib sensitivity of BRG1 mutant vs BRG1 wild-type cell lines” value [1] is reported as “slightly more sensitive”.
In the case of CC[C@H](C)n1cc(C)c2c(C(=O)NCc3c(C)cc(C)[nH]c3=O)cc(-c3ccc(N4CCNCC4)nc3)cc21 [GSK126], the EZH2 levels (EZH2 and H3K27me3) is reported as “remained unchanged”, the H3K27me3 levels (EZH2 and H3K27me3) is reported as “marked decrease” and the “etoposide dose response: classes of GSK126 treated cell lines” value (human NSCLC lines; 10 μM GSK126) is reported as “same TopoII inhibitor-sensitized and -protected classes”.
